Test results: ChEMBL document CHEMBL1667735, “Human cytochrome P450 liability studies of trans-dihydronarciclasine: a readily available, potent, and selective cancer cell growth inhibitor” (J Nat Prod, 2011); call rule not given here

Assays:
Cytochrome P450 1A1 = biological target: T1, Cytochrome P450 1A1 (Homo sapiens, UniProt P04798); test: Inhibition of human CYP1A1 at 10 uM; assay type: ADME
T1 sequence (P04798 whole entry): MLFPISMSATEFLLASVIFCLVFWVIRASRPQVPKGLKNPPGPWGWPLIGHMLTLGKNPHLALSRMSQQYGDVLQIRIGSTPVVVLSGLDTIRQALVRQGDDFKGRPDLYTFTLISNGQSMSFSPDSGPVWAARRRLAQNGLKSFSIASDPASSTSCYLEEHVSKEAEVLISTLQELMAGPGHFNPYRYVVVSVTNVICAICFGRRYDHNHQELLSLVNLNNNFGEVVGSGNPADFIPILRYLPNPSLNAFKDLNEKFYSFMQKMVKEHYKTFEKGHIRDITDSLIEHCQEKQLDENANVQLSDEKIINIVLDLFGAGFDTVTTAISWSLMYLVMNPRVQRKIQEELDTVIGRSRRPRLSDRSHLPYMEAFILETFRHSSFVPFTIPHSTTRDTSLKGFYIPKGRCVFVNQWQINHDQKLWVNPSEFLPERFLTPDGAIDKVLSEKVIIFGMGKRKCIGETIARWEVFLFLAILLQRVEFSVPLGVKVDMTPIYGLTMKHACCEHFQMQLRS

Aromatase = biological target: T2, Aromatase (Homo sapiens, UniProt P11511); test: Inhibition of human CYP19 at 10 uM; assay type: ADME
T2 sequence (P11511 whole entry): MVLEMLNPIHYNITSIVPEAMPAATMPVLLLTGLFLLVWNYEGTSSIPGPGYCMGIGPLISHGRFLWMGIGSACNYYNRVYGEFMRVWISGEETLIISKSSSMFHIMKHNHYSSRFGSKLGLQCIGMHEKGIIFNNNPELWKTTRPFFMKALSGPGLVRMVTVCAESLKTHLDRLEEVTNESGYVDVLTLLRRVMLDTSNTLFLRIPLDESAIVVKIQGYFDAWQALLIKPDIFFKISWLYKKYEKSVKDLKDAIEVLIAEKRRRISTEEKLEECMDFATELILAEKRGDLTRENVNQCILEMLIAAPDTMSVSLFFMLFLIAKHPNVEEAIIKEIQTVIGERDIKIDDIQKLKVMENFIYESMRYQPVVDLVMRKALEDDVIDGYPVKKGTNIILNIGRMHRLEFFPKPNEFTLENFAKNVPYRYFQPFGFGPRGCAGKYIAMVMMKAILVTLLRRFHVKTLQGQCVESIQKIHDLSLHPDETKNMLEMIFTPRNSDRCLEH

O=C1N[C@H]2[C@H](O)[C@H](O)[C@@H](O)C[C@@H]2c2cc3c(c(O)c21)OCO3
inhibition (INH) (Cytochrome P450 1A1): Not Active
inhibition (INH) (Aromatase): Not Active
